Experimental data: patent publication US12428377B2, “Sodium-hydrogen exchanger 3 inhibitor compounds” (Eli Lilly and Company, priority 2019, dated 2025)
Where two headings read alike, the source gives them in different places.

System: Male Sprague-Dawley rats
Experiment: Effect of Example 2 on sodium and phosphate absorption (urinary excretion after oral NaH2PO4 bolus)
Type: in vivo, rat
Settings: 4 h urine; for ED50: Rattus norvegicus, oral, NaH2PO4 bolus 690 mg/kg; for Ratio of Urinary-to-Dietary Phosphorus / Ratio of Urinary-to-Dietary Sodium: mean ± SEM
Procedure: Effect of Example 2 on Sodium and Phosphate Absorption Urinary sodium and phosphate excretion following an oral bolus dose of sodium phosphate is an indirect measure of sodium and phosphate absorption in the intestine. Male Sprague-Dawley rats at an age of about 7 weeks with body weights ranging from 195 to 221 g are randomized into groups based on equal mean body weights. Example 2 at 0.3 mg/mL (final dose 3 mg/kg dosed in 10 mL/kg volume) is formulated by adding 1% HEC to a glass vial containing a pre-weighed amount of compound, and then probe sonicating until it appears as a uniform suspension. […] The subsequent dosing solutions of Example 2 are prepared by serial dilutions with 1% HEC. NaH2PO4 at 34.5 mg/ml (final dose 690 mg/kg dosed in 20 ml/kg volume) is formulated by adding sterile water. On the day of the study, the animals are placed into clean cages without food but with access to water for a 4 h fast before the study. Rats are orally dosed with vehicle or varying doses of Example 2. 15 min later, animals are dosed with sterile water or NaH2PO4, then immediately transferred to metabolic cages. Urine samples are collected for 4 h. Net urine volume is recorded. Urinary sodium, creatinine, and phosphate are assessed using a clinical biochemistry analyzer. Values expressed as the ratio of urinary-to-dietary phosphorus or sodium are calculated and presented as mean±SEM. Curves are fitted with a 4-parameter logistic curve fitting tool GraphPod Prism 6 to calculate the ED50. For the purpose of curve fitting, the dose of Example 2 is artificially set to 0.00001 mg/kg in the software for the vehicle-alone group.

## CN1Cc2c(Cl)cc(Cl)cc2[C@H](c2cccc(S(=O)(=O)NCCOCCOCCN/C(=N\C(N)=O)NCCCCN/C(=N/C(N)=O)NCCOCCOCCNS(=O)(=O)c3cccc([C@@H]4CN(C)Cc5c(Cl)cc(Cl)cc54)c3)c2)C1.Cl.Cl [Example 2, [[4-[[N′-Carbamoyl-N-[2-[2-[2-[[3-[(4S)-6,8-dichloro-2-methyl-3,4-dihydro-1H-isoquinolin-4-yl]phenyl]sulfonylamino]ethoxy]ethoxy]ethyl]carbamimidoyl]amino]butylamino]-[2-[2-[2-[[3-[(4S)-6,8-dichloro-2-methyl-3,4-dihydro-1H-isoquinolin-4-yl]phenyl]sulfonylamino]ethoxy]ethoxy]ethylamino]methylene]urea dihydrochloride]
read-out: ED50 on sodium excretion
  ED50: 0.058 mg/kg
read-out: ED50 on urinary phosphorus excretion
  ED50: 0.041 mg/kg
Oral 0.001 mg/kg
  Ratio of Urinary-to-Dietary Phosphorus: 0.337 ± 0.017
  Ratio of Urinary-to-Dietary Sodium: 0.326 ± 0.042
Oral 0.003 mg/kg
  Ratio of Urinary-to-Dietary Phosphorus: 0.350 ± 0.023
  Ratio of Urinary-to-Dietary Sodium: 0.413 ± 0.055
Oral 0.01 mg/kg
  Ratio of Urinary-to-Dietary Phosphorus: 0.320 ± 0.042
  Ratio of Urinary-to-Dietary Sodium: 0.290 ± 0.06
Oral 0.03 mg/kg
  Ratio of Urinary-to-Dietary Phosphorus: 0.268 ± 0.04
  Ratio of Urinary-to-Dietary Sodium: 0.276 ± 0.06
Oral 0.1 mg/kg
  Ratio of Urinary-to-Dietary Phosphorus: 0.197 ± 0.045
  Ratio of Urinary-to-Dietary Sodium: 0.105 ± 0.042
Oral 0.3 mg/kg
  Ratio of Urinary-to-Dietary Phosphorus: 0.168 ± 0.027
  Ratio of Urinary-to-Dietary Sodium: 0.039 ± 0.010
Oral 1 mg/kg
  Ratio of Urinary-to-Dietary Phosphorus: 0.191 ± 0.039
  Ratio of Urinary-to-Dietary Sodium: 0.051 ± 0.027
Oral 3 mg/kg
  Ratio of Urinary-to-Dietary Phosphorus: 0.144 ± 0.009
  Ratio of Urinary-to-Dietary Sodium: 0.022 ± 0.009
